This note sets out measurements from ChEMBL document CHEMBL3991601, “The target landscape of clinical kinase drugs” (Science, 2017).

For assay [1], the target named is Mitogen-activated protein kinase 8 (Homo sapiens, UniProt P45983).
The target in assay [2] is T1, Ferrochelatase, mitochondrial (Homo sapiens, UniProt P22830).
T1 sequence (P22830 whole entry): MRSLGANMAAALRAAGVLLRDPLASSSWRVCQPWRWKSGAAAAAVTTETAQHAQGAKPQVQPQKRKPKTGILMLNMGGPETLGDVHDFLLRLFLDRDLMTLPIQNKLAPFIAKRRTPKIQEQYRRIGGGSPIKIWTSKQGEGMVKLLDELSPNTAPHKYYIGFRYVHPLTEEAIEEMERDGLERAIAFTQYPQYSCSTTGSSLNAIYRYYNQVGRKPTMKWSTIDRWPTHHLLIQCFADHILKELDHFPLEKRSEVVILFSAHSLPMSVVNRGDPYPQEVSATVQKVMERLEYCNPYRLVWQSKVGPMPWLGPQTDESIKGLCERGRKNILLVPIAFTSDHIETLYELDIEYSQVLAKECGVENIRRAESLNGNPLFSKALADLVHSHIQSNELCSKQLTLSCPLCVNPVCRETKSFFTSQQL

Assay [3] concerns the target Serine/threonine-protein kinase/endoribonuclease IRE2 (Homo sapiens, UniProt Q76MJ5).
Another assay concerns the target T2, Ephrin type-B receptor 4 (Homo sapiens, UniProt P54760).
T2 sequence (P54760 whole entry): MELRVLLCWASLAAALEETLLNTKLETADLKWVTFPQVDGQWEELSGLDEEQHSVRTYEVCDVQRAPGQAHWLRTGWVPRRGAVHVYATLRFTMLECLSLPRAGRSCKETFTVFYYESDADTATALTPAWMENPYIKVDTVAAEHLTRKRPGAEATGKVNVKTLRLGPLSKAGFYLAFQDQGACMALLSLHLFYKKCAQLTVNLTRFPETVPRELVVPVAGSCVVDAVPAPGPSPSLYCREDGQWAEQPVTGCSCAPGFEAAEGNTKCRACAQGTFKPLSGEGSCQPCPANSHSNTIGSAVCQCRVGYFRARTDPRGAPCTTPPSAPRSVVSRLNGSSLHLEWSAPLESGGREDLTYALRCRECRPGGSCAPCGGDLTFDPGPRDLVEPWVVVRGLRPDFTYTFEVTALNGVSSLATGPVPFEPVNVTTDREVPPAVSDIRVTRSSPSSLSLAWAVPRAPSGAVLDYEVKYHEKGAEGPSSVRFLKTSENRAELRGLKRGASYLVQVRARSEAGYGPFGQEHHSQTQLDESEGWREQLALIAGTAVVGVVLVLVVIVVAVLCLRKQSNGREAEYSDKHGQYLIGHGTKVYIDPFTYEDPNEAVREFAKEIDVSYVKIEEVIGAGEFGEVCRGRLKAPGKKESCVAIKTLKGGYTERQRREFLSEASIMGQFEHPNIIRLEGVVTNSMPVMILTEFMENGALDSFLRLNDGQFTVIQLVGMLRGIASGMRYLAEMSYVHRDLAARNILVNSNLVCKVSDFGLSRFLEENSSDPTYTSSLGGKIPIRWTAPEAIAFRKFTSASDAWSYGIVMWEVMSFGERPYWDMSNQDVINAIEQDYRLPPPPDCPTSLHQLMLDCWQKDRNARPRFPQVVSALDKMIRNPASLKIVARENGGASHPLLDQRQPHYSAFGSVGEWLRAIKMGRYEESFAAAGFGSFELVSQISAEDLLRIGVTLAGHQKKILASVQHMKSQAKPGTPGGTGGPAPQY

For assay [4], the target named is Tyrosine-protein kinase ABL2 (Homo sapiens, UniProt P42684).
Assay [5] has as its target T3, Dual specificity mitogen-activated protein kinase kinase 6 (Homo sapiens, UniProt P52564).
T3 sequence (P52564 whole entry): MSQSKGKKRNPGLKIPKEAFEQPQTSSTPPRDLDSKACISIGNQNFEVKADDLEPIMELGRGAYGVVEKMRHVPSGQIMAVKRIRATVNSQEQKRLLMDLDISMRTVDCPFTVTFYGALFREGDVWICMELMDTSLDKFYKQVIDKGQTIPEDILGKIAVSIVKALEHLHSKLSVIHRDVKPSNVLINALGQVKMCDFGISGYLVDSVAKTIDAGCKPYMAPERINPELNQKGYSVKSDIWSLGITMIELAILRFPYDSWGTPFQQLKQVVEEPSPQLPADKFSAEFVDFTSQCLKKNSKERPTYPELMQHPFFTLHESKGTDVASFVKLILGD

The target of assay [6] is T4, Discoidin domain-containing receptor 2 (Homo sapiens, UniProt Q16832).
T4 sequence (Q16832 whole entry): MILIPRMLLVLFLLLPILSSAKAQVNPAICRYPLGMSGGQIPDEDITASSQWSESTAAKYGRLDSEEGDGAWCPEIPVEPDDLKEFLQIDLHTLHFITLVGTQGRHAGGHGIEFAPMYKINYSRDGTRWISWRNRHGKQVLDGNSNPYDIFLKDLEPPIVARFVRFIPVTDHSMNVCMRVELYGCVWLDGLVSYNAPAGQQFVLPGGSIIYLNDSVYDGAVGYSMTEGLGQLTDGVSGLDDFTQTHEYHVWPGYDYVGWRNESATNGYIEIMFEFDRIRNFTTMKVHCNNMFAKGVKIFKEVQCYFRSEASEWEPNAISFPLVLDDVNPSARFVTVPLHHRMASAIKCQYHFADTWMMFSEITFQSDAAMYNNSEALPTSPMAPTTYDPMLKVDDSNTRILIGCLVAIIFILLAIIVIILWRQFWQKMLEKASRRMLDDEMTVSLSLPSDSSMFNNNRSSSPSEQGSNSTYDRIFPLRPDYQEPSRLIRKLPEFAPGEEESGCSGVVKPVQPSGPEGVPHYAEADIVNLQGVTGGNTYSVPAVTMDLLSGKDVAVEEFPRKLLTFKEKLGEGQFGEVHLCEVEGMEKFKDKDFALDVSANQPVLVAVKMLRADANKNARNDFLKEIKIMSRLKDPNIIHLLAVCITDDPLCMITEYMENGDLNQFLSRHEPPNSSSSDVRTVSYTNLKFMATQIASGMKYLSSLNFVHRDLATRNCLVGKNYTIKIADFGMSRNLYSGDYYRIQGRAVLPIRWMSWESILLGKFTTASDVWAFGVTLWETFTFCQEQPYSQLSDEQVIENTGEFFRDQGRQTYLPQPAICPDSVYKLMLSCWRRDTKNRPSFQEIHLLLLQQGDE

In assay [7] the target is Protein kinase C delta type (Homo sapiens, UniProt Q05655).
Assay [8] addresses DNA topoisomerase 2-alpha (Homo sapiens, UniProt P11388).
Assay [9] addresses Receptor-interacting serine/threonine-protein kinase 3 (Homo sapiens, UniProt Q9Y572).

Structures are written as SMILES. Active and inactive are the calls of the source. For most assays here, no stated cut-off is given here; in the data, actives have a measured Kd and inactives only a lower limit. Where only a bound is given, the exact number is not on record here.

Chain of Mitogen-activated protein kinase 8 (P45983 whole entry): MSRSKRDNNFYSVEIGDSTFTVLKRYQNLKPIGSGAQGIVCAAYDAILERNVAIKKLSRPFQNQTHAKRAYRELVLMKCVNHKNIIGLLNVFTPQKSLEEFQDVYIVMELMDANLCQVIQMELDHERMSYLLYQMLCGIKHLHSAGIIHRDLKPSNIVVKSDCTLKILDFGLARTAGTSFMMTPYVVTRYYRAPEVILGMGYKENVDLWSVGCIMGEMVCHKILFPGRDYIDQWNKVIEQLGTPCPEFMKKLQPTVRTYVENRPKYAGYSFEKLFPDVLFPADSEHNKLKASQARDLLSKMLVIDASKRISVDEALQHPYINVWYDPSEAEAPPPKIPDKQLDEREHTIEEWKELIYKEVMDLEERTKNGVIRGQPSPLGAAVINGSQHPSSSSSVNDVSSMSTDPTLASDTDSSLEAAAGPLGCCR
Chain of Tyrosine-protein kinase ABL2 (P42684 whole entry): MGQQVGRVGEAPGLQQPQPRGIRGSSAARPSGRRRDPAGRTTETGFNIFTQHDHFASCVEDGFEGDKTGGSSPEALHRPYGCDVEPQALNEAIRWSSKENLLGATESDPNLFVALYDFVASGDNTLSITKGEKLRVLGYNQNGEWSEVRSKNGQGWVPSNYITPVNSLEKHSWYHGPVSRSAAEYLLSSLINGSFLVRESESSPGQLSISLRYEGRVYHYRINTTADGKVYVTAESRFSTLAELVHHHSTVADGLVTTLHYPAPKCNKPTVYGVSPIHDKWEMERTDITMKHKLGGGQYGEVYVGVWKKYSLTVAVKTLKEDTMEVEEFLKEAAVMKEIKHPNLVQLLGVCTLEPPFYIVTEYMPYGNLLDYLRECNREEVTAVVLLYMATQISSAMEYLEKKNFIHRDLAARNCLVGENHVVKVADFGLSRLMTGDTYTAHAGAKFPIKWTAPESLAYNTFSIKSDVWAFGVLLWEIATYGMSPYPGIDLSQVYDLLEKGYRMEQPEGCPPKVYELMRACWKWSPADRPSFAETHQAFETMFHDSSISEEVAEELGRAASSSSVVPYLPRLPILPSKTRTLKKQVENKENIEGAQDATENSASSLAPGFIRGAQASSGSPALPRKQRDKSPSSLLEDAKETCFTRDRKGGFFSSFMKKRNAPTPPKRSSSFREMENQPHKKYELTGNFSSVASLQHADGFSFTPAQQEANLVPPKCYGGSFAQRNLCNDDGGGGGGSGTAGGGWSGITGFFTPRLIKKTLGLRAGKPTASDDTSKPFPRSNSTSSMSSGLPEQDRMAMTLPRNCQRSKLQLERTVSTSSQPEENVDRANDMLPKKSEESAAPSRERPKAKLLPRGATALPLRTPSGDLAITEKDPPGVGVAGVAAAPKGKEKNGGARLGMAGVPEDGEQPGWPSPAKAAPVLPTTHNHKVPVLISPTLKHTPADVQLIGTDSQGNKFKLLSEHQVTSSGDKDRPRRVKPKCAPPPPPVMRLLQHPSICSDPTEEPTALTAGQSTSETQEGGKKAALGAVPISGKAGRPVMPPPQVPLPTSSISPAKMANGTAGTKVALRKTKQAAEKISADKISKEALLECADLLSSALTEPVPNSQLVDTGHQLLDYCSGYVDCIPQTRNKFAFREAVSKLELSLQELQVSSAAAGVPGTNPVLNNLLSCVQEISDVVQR
Chain of Receptor-interacting serine/threonine-protein kinase 3 (Q9Y572 whole entry): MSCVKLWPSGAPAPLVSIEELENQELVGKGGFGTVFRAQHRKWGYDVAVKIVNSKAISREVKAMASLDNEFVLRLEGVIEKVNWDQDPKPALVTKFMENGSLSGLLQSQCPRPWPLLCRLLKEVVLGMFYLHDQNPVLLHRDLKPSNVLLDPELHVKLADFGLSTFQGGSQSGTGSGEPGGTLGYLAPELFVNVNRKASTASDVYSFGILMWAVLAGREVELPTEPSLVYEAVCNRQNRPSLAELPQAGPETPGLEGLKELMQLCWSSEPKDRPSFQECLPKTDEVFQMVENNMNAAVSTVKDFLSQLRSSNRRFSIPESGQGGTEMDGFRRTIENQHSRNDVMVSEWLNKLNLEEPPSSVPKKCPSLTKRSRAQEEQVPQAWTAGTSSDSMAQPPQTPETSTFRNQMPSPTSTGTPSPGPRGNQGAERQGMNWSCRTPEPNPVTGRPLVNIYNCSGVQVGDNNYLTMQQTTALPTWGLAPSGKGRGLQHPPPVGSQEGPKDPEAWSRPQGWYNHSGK
Chain of Protein kinase C delta type (Q05655 whole entry): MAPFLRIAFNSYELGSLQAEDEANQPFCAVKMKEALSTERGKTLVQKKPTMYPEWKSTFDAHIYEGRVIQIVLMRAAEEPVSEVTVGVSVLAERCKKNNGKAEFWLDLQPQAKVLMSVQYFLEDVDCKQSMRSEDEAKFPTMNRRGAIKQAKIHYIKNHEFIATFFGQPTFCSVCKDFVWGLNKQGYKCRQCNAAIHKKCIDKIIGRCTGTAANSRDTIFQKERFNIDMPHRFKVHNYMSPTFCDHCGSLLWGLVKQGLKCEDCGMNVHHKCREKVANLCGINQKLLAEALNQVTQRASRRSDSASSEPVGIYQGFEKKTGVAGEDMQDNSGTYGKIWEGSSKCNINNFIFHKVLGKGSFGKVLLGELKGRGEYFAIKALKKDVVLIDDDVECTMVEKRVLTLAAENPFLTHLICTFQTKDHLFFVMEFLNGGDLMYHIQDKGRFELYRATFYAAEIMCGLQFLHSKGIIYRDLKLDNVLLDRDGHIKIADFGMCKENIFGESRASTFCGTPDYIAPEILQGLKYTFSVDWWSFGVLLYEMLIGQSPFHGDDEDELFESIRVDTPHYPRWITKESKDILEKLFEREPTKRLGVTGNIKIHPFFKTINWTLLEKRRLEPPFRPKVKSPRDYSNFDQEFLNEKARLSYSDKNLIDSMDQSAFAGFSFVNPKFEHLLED
Chain of Serine/threonine-protein kinase/endoribonuclease IRE2 (Q76MJ5 whole entry): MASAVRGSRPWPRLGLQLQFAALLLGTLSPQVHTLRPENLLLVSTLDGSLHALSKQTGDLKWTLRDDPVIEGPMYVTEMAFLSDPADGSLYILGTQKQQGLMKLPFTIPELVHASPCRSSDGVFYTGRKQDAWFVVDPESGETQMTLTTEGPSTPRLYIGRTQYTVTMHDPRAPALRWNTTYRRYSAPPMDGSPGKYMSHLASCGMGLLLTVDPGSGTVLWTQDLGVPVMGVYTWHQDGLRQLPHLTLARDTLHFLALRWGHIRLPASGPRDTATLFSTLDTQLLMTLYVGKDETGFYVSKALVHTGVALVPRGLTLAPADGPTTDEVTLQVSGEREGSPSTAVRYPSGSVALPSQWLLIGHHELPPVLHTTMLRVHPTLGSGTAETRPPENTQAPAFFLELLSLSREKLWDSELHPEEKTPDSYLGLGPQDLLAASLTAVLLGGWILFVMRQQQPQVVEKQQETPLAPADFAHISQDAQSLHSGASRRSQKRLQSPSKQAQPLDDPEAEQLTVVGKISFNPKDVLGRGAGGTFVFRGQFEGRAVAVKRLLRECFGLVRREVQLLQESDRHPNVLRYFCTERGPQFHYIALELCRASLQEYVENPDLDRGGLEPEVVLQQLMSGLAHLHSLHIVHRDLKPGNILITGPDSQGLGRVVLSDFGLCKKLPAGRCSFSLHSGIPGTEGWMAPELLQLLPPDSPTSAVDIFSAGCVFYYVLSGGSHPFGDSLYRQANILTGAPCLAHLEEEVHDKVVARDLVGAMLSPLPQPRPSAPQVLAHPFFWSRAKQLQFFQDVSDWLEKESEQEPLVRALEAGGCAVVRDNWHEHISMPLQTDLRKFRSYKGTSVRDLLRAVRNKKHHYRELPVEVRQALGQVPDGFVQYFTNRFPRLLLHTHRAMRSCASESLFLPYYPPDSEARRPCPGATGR

In general, Kd refers to the equilibrium constant for the complex coming apart. As for `O=C1NC(=O)/C(=C/c2ccc3nccc(-c4ccncc4)c3c2)S1` [GSK-1059615], the Kd (in assay [1]; in assay [2]; in assay [3]; on Ephrin type-B receptor 4; in assay [4]; in assay [5]) was > 30 µM (inactive) each time. For the same molecule, the Kd in assay [6], in assay [7], in assay [8] and in assay [9] was > 30 µM (inactive) throughout.
On to `CC[C@@H]1C(=O)N(C)c2cnc(Nc3ccc(C(=O)N[C@H]4CC[C@H](N5CCN(CC6CC6)CC5)CC4)cc3OC)nc2N1C(C)C` [VOLASERTIB], for which the Kd (in [1]; in assay [2]; in assay [3]; at Ephrin type-B receptor 4; in assay [4]; in [5]) was > 30 µM (inactive) throughout. The Kd in assay [6], in assay [7], in [8] and in [9] was > 30 µM (inactive) each time.
As for `O=c1sn(-c2cccc3ccccc23)c(=O)n1Cc1ccccc1` [TIDEGLUSIB], the Kd (in [1]; in assay [2]; in assay [3]; at Ephrin type-B receptor 4; in [4]; in [5]) was > 30 µM (inactive) in each case. Further, the Kd in [6], in assay [7], in [8] and in [9] was > 30 µM (inactive) each time.
For `CO[C@H]1C[C@@H]2CC[C@@H](C)[C@@](O)(O2)C(=O)C(=O)N2CCCC[C@H]2C(=O)O[C@H]([C@H](C)C[C@@H]2CC[C@@H](OCCO)[C@H](OC)C2)CC(=O)[C@H](C)/C=C(\C)[C@@H](O)[C@@H](OC)C(=O)[C@H](C)C[C@H](C)/C=C/C=C/C=C/1C` [EVEROLIMUS], the Kd (in assay [1]; in assay [2]; in [3]; at Ephrin type-B receptor 4; in assay [4]; in [5]) was > 30 µM (inactive) throughout. The Kd in assay [6], in [7], in assay [8] and in [9] was > 30 µM (inactive) each time.
In the case of `CN(C)C(=O)c1cc2cnc(Nc3ccc(N4CCNCC4)cn3)nc2n1C1CCCC1` [RIBOCICLIB], the Kd in assay [1] was > 30 µM (inactive); in [2], 12.3 µM; in [3], > 30 µM (inactive); at Ephrin type-B receptor 4, > 30 µM (inactive); in assay [4] it was > 30 µM (inactive); in assay [5], > 30 µM (inactive). The Kd in assay [6], in assay [7], in assay [8] and in [9] was > 30 µM (inactive) each time.
As to `CC(C)Nc1cc(-c2c[nH]c(C(=O)N[C@H](CO)c3cccc(Cl)c3)c2)c(Cl)cn1` [ULIXERTINIB], the Kd (in [1]; in [2]; in [3]; on Ephrin type-B receptor 4; in [4]; in [5]) was > 30 µM (inactive) in each case. The Kd in assay [6], in assay [7], in assay [8] and in assay [9] was > 30 µM (inactive) throughout.
